Reference: patent publication US20100222371A1, “PREVENTION OF SURGICAL ADHESIONS” (CHILDREN'S MEDICAL CENTER CORPORATION, priority 2008, published 2010)
“And” between values parts separate entries of the source, which are not always exact repeats. Equal entries are not always repeated. “Also recorded” adds a separate entry of the source.

Experiments:
adhesion formation = experiment: Mouse adhesion model (silicone patch on abdominal wall, cecal abrasion), Example 1; assay type: in vivo, C57BL/6 mice
Experimental: Ten 7 week old male C57BL/6 mice were anesthetized with isoflurane and a midline laparotomy was performed. A 5.0 mm×5.0 mm piece of sterile silicone was attached to the right abdominal wall with 7.0 prolene sutures. The cecum then was gently rubbed with 2 cotton swabs to promote adhesion formation.
Two groups of 5 mice were treated with either 40 mg/kg/day of sunitinib in methylcellulose or methyl cellulose alone beginning the day before the adhesion operation and administered daily for 10 days. After 10 days of treatment, the animals were anesthetized with avertin, sacrificed, and the adhesions were scored.
The total adhesion score was the sum of the 3 individual scores. A minimum score was 0 and the maximum score was 12. Tenacity was rated as none (0), adhesions fell apart (1), lysed with traction (2), lysed with blunt dissection (3), and lysed with sharp dissection (4). Extent was measured as the percent of the patch covered by adhesion: 0% (0), <25% (1), 25 to 50% (2), 50 to 75% (3), and >75% (4). Cecal adhesions were graded as none (0), adhesions fell apart (1), lysed with traction (2), lysed with blunt dissection (3), and lysed with sharp dissection (4). The differences between the treated and untreated groups were significant (P=0.021).

[1] = system: intra-abdominal adhesion formation; experiment: Standard mouse adhesion model (cecal abrasion, silicone patch), Example 2, sacrifice on postoperative day 10 or 30; assay type: in vivo, C57BLJ6 mice; conditions: for Median cecal: median cecal adhesion score 0-4 (IQR); for Median extent / Median tenacity: median score 0-4 (IQR); for Total score: total median adhesion score 0-12 (IQR); for intra-abdominal adhesion formation compared with control: FIG. 1, FIG. 2; for long-term intra-abdominal adhesion formation compared with control: FIG. 3
Experimental: Thirty-seven 6- to 8-wk old C57BLJ6 mice (The Jackson Laboratory, Bar Harbor, Me.) were housed in cages of five mice with food and water ad libitum. The mice were acclimated to the facility for at least 72 h prior to surgery. A standard mouse adhesion model was performed as previously described (Chiang S C., et al (2000) J Pediatr Surg 35:189). After the mice were anesthetized with inhaled isoflurane, a midline incision was made, the cecum was eviscerated, rubbed gently with two cotton swabs, and then returned to anatomical position. A silicone patch (5.0×5.0×0.127 mm) (Bentec Medical, Woodland, Calif.) was sutured to the right abdominal wall, lateral to the epigastric vessels, with 7-0 nylon. One day prior to surgery, the mice were randomly treated with sunitinib (40 mg/kg in 100 methylcellulose) or methylcellulose control (100 uL). This dose was selected based on previous studies (Morimoto A M., (2004) Oncogene 23:1618; Takahashi H., et al (2006) J Ocul Pharmacol Ther 22:213; Pietras K., et al (2005) J Clin Ocol 23:939) Both groups were treated daily by orogastric gavage at the same dose for 10 days. On postoperative day 10, the mice were sacrificed and adhesions were scored by an observer who was blinded to the treatment groups, based on a previously described scoring system (Chiang S C., et al (2000), supra). The experiment was then repeated with sacrifice on postoperative day 30. The adhesion score was based on the extent of the patch covered by adhesions, the tenacity of adhesions to the patch, and the strength of cecal adhesions. Each criterion was scored from 0-4 and the sum of the three scores was the final adhesion score. The lowest and highest possible scores were 0 and 12, respectively. The tenacity of the adhesions to the patch was scored: 0=none, 1=adhesions fell apart, 2=lysed with traction, 3=lysed with blunt dissection, 4=lysed with sharp dissection. The extent of the patch covered was scored: 0=0%, 1=<25%, 2=25% to 50%, 3=50% to 75%, 4=>75%. The tenacity of cecal adhesions was scored: 0=none, 1=adhesions fell apart, 2=lysed with traction, 3=lysed with blunt dissection, 4=lysed with sharp dissection. Statistical analysis of adhesion scores was conducted using the Mann-Whitney rank sum test. The conventional 2-tailed P-value of 0.05 was used to establish significance. The results are presented as median adhesion score and interquartile range (IQR: 25th-75th percentile). The statistical program used was SigmaStat (SPSS, Chicago, Ill.).

adhesions of the uterus = experiment: Standard rabbit adhesion procedure (uterine horn abrasion), Example 3; assay type: in vivo, New Zealand white rabbits; conditions: for Extent of Uterus Covered: median percent involvement score 0-4 (IQR); for Extent of Uterus Covered / Total score / Adhesion Free Rabbits: 10 mg/kg daily for ten days; for Extent of Uterus Covered / Total score: p=0.003; for Total score: median total adhesion score (IQR); for Adhesion Free Rabbits: number of rabbits out of N = 8 surviving
Experimental: Twenty female New Zealand white rabbits underwent a standard rabbit adhesion procedure. The uterus and its bilateral horns were eviscerated, and abraded with the scalpel until punctate hemorrhages appeared. Collateral blood supply in the right mesosalpinx was tied off with 5-0 silk ties. The uterus was then returned to normal anatomic position. One day prior to surgery, the rabbits were randomly assigned to be treated with sunitinib at a dose of 10 mg/kg or saline control via orogastric gavage. Both groups were treated daily for a total of ten days. On postoperative day ten, the rabbits were sacrificed and their adhesions were scored by two observers who were blinded to their treatments. Adhesions are graded based on their tenacity (0=no adhesions, 1=adhesions fall apart, 2=adhesions lysed by traction, 3=adhesions lysed with blunt dissection, 4=adhesions lysed with sharp dissection) and the percent of uterus involved (0=none, 1=<25%, 2=25-50%, 3=51-75%, 4=>75%).

[2] = long-term, postoperative day 30, treated 10 d, n = 10, P=0.049
[3] = long-term, postoperative day 30, treated 10 d, n = 10, P=0.049, listed as sunitinib
[4] = postoperative day ten, N = 8, 10 mg/kg
[5] = postoperative day ten, N = 8, listed as Sunitinib + saline, 10 mg/kg

In the case of `CCN(CC)CCNC(=O)c1c(C)[nH]c(/C=C2\C(=O)Nc3ccc(F)cc32)c1C` [Sunitinib, sunitinib malate], the “adhesion prevention vs vector only control” value (adhesion formation; 7 week old male C57BL/6 mice, Table 1 study, P=0.021) is reported as “significantly prevention adhesion formation”, the comments (adhesion formation; observation on individual mouse at scoring, 40 mg/kg/day, 10 days) is reported as “Looked good” and the Tenacity (adhesion formation; score of individual mouse, 0 (none) to 4 (lysed with sharp dissection), 40 mg/kg/day in methylcellulose, daily for 10 days from day before operation, scored after 10 days, listed as SU11248, 40 mg/kg/day) is reported as 1 and 0 (3×) and 2. The Cecal adhesions (adhesion formation; score of individual mouse, 0 (none) to 4 (lysed with sharp dissection), 40 mg/kg/day, 10 days, listed as SU11248, 40 mg/kg/day) was 2 (2×) and 0 (2×) and 1, the Extent (adhesion formation; score of individual mouse, percent of patch covered: 0% (0), <25% (1), 25 to 50% (2), 50 to 75% (3), >75% (4), 40 mg/kg/day, 10 days, listed as SU11248, 40 mg/kg/day) was 3 (2×) and 0 (3×) and the Total (adhesion formation; total adhesion score of individual mouse, sum of 3 scores, 0-12, 40 mg/kg/day, 10 days, treated vs untreated P=0.021, listed as SU11248, 40 mg/kg/day) was 6 and 2 and 0 and 1 and 5. The Median cecal ([1]; long-term, postoperative day 30, treated 10 d, n = 10, P=0.225) was 0 (IQR 0-2.0), the Median cecal ([1]; long-term, postoperative day 30, treated 10 d, n = 10, P=0.225, listed as sunitinib) was 0.0 (IQR 0-2.0) and the Median extent [1, 2] was 0 (IQR 0-1.0). For the same molecule, the Median extent [1, 3] was 0.0 (IQR 0-1.0), the Median tenacity ([1]; long-term, postoperative day 30, treated 10 d from day prior to surgery, n = 10, P=0.011) was 0 (IQR 0-0.5) and the Median tenacity ([1]; long-term, postoperative day 30, treated 10 d from day prior to surgery, n = 10, P=0.011, listed as sunitinib) was 0.0 (IQR 0.0-0.5). The Adhesion free mice ([1]; long-term, postoperative day 30, number of mice out of n = 10) was 6, the mice completely adhesion-free ([1]; long-term, postoperative day 30, six of 10 mice) was 60% and the Total score [1, 2] was 0 (IQR 0-3.0). For the same molecule, the Total score [1, 3] was 0.0 (IQR 0.0-3.0), the “intra-abdominal adhesion formation compared with control” value ([1]; postoperative day 10, P=0.002) was “significantly decreased” and the “intra-abdominal adhesion formation compared with control” value ([1]; postoperative day 10, P=0.002, listed as sunitinib) was “adhesion free; also recorded: significantly decreased”. The Median cecal ([1]; postoperative day 10, 40 mg/kg daily gavage for 10 days, n = 18, P=0.002) was 2.0 (IQR 0-2.0), the Median extent ([1]; postoperative day 10, 40 mg/kg daily gavage for 10 days, n = 18, P vs control 0.091 (Table 3), 0.91, 40 mg/kg) was 0 (IQR 0-2.0) and the Median extent ([1]; postoperative day 10, 40 mg/kg daily gavage for 10 days, n = 18, P vs control 0.091 (Table 3), 0.91, listed as sunitinib, 40 mg/kg) was 0.0 (IQR 0-2.0). For the same molecule, the Median tenacity ([1]; postoperative day 10, 40 mg/kg daily orogastric gavage for 10 days, n = 18, P vs control 0.068 (Table 3), 0.68, 40 mg/kg) was 0 (IQR 0-1.0), the Median tenacity ([1]; postoperative day 10, 40 mg/kg daily orogastric gavage for 10 days, n = 18, P vs control 0.068 (Table 3), 0.68, listed as sunitinib, 40 mg/kg) was 0.0 (IQR 0.0-1.0) and the Adhesion free mice ([1]; postoperative day 10, number of mice out of n = 18, 40 mg/kg daily for 10 days) was 6. For the same molecule, the mice completely adhesion-free ([1]; postoperative day 10, six of 18 mice, 40 mg/kg daily for 10 days) was 33.3%, the Total score ([1]; postoperative day 10, 40 mg/kg daily gavage for 10 days, n = 18, P=0.002, 40 mg/kg) was 2.0 (IQR 0-5.0) and the Total score ([1]; postoperative day 10, 40 mg/kg daily gavage for 10 days, n = 18, P=0.002, listed as sunitinib, 40 mg/kg) was 2.0 (IQR 0.0-5.0). The “long-term intra-abdominal adhesion formation compared with control” value ([1]; postoperative day 30, P=0.049) was “significantly decreased”, the “long-term intra-abdominal adhesion formation compared with control” value ([1]; postoperative day 30, P=0.049, listed as sunitinib) was “decreased” and the “abdominal cavity adhesions in micrograph” value (adhesions of the uterus; FIG. 4, treated rabbit) was “free from abdominal cavity adhesions”. The “Extent of Uterus Covered” value (adhesions of the uterus; [4]) was 1.0 (IQR 0-1.0; range 0-1), the “Extent of Uterus Covered” value (adhesions of the uterus; [5]) was 1.0 and the “Tenacity to Uterus” value (adhesions of the uterus; median score 0-4 (IQR), 10 mg/kg daily orogastric gavage for ten days from day prior to surgery, postoperative day ten, N = 8, p=0.004, listed as Sunitinib + saline, 10 mg/kg) was 1.0. For the same molecule, the “Total score” value (adhesions of the uterus; [4]) was 2 (IQR 0-2.75; range 0-3), the “Total score” value (adhesions of the uterus; [5]) was 2.0 and the “Adhesion Free Rabbits” value (adhesions of the uterus; postoperative day ten, 10 mg/kg) was “Three of the eight”. The “Adhesion Free Rabbits” value (adhesions of the uterus; postoperative day ten, listed as Sunitinib + saline, 10 mg/kg) was 3.
